Results as given in patent publication US20070128217A1 (priority 2003, published 2007).

Columns and labels:
[1] = test system: antibodies in sera from SARS patients (sera 1a, 1b, 2, 6, 37, 62, London, SARS-yellow, SARS-green); type: binding, human; set-up: Binding of serum 6 to linear peptides of protein X1 of SARS-CoV Urbani / Binding of serum 37 to linear peptides of protein X1 of SARS-CoV Urbani / Binding of serum 6 to looped/cyclic peptide (PEPSCAN-ELISA) / Binding of serum 37 to looped/cyclic peptide (PEPSCAN-ELISA) / Binding of serum 37 to looped/cyclic peptides of protein X1 of SARS-CoV Urbani / Binding of serum 6 to linear peptides of protein X2 / Binding of serum 37 to linear peptides of protein X2 / Binding of serum 37 to looped/cyclic peptides of protein X2 of SARS-CoV Urbani / Binding of serum 6 to linear peptides of protein M of SARS-CoV Urbani / Binding of serum 37 to linear peptides of protein M of SARS-CoV Urbani / Binding of serum 6 to looped/cyclic peptides of protein M of SARS-CoV Urbani / Binding of serum 37 to looped/cyclic peptides of protein M of SARS-CoV Urbani / Binding of serum 6 to linear peptides of protein X3 of SARS-CoV Urbani / Binding of serum 37 to linear peptides of protein X3 of SARS-CoV Urbani / Binding of serum 37 to looped/cyclic peptides of protein X3 of SARS-CoV Urbani / Binding of serum 6 to linear peptides of protein X4 of SARS-CoV Urbani / Binding of serum 37 to linear peptides of protein X4 of SARS-CoV Urbani / Binding of serum 37 to looped/cyclic peptides of protein X4 of SARS-CoV Urbani / Binding of serum 6 to linear peptides of protein X5 of SARS-CoV Urbani / Binding of serum 37 to linear peptides of protein X5 of SARS-CoV Urbani / Binding of serum 37 to looped/cyclic peptides of protein X5 of SARS-CoV Urbani / Binding of serum 6 to linear peptides of protein N of SARS-CoV Urbani / Binding of serum 37 to linear peptides of protein N of SARS-CoV Urbani / Binding of serum 6 to linear peptide (PEPSCAN-ELISA) / Binding of serum 1a to looped/cyclic peptides of protein N of SARS-CoV Urbani / Binding of serum 1b to looped/cyclic peptides of protein N of SARS-CoV Urbani / Binding of serum 2 to looped/cyclic peptides of protein N of SARS-CoV Urbani / Binding of serum 6 to looped/cyclic peptides of protein N of SARS-CoV Urbani / Binding of serum 37 to looped/cyclic peptides of protein N of SARS-CoV Urbani / Binding of serum 62 to looped/cyclic peptides of protein N of SARS-CoV Urbani / Binding of serum London to looped/cyclic peptides of protein N of SARS-CoV Urbani / Binding of serum SARS-green to looped/cyclic peptides of protein N of SARS-CoV Urbani: unit not given here
[2] = test system: control sera (pooled serum of ten healthy LUMC hospital workers; commercial negative donor pooled serum from the Dutch bloodbank); type: binding, human; set-up: Binding of Control serum LUMC to linear peptides / Binding of Control serum Blood-bank to linear peptides / Binding of Control serum LUMC to looped peptides / Binding of Control Serum Blood-Bank to Looped peptides / Binding of Control serum LUMC to linear peptides of the protein M of SARS-CoV Urbani / Binding of Control serum Blood-bank to linear peptides of the protein M of SARS-CoV Urbani / Binding of Control serum LUMC to looped peptides of the protein M of SARS-CoV Urbani / Binding of Control Serum Blood-Bank to Looped peptides of the protein M of SARS-CoV Urbani: unit not given here
[3] = test system: recombinant human anti-SARS-CoV antibody 03-018; type: binding; set-up: Binding of antibody 03-018 to linear peptides of the N protein of SARS-CoV Urbani / Binding of antibody 03-018 to looped/cyclic peptides of the N protein of SARS-CoV Urbani: unit not given here
[4] = test system: rabbit serum obtained by immunizing a rabbit with the SARS-CoV strain Frankfurt 1; type: binding; set-up: Binding of a rabbit serum to linear peptides / Binding of a rabbit serum to looped peptides / Rabbit serum linear peptides / Rabbit serum looped peptides / Binding of a rabbit serum to linear peptides of protein N of SARS-CoV Urbani (Rabbit serum linear peptides) / Binding of a rabbit serum to looped/cyclic peptides of protein N of SARS-CoV Urbani (Rabbit serum looped peptides): unit not given here

| Sequence | Binding of serum 1a to linear peptides of protein N of SARS-CoV Urbani [1] | Binding of serum 1a to looped/cyclic peptides of protein N of SARS-CoV Urbani [1] | Binding of serum 1b to linear peptides of protein N of SARS-CoV Urbani [1] | Binding of serum 1b to looped/cyclic peptides of protein N of SARS-CoV Urbani [1] | Binding of serum 2 to linear peptides of protein N of SARS-CoV Urbani [1] | Binding of serum 2 to looped/cyclic peptides of protein N of SARS-CoV Urbani [1] | Binding of serum 6 to linear peptides of protein N of SARS-CoV Urbani [1] | Binding of serum 6 to looped/cyclic peptides of protein N of SARS-CoV Urbani [1] | Binding of serum 37 to linear peptides of protein N of SARS-CoV Urbani [1] | Binding of serum 37 to looped/cyclic peptides of protein N of SARS-CoV Urbani [1] | Binding of serum 62 to linear peptides of protein N of SARS-CoV Urbani [1] | Binding of serum 62 to looped/cyclic peptides of protein N of SARS-CoV Urbani [1] | Binding of serum London to linear peptides of protein N of SARS-CoV Urbani [1] | Binding of serum London to looped/cyclic peptides of protein N of SARS-CoV Urbani [1] | Binding of serum SARS-green to looped/cyclic peptides of protein N of SARS-CoV Urbani [1] | Binding of serum SARS-yellow to looped/cyclic peptides of protein N of SARS-CoV Urbani [1] | Binding of antibody 03-018 to linear peptides of the N protein of SARS-CoV Urbani [3] | Binding of antibody 03-018 to looped/cyclic peptides of the N protein of SARS-CoV Urbani [3] | Binding of a rabbit serum to linear peptides of protein N of SARS-CoV Urbani (Rabbit serum linear peptides) [4] | Binding of a rabbit serum to looped/cyclic peptides of protein N of SARS-CoV Urbani (Rabbit serum looped peptides) [4] | other results |
| --- | --- | --- | --- | --- | --- | --- | --- | --- | --- | --- | --- | --- | --- | --- | --- | --- | --- | --- | --- | --- | --- |
| VPINTNSGPDDQIGY | 0.3 | 0.5 | 0.2 | 0.4 | 0.2 | 0.4 | 0.2 | 0.2 | 0.8 | 0.9 | 0.7 | 0.7 | 0.4 | 0.5 | 1.1 | 0.7 | 0.1 | 0.2 | 0.1 | 0.3 | Binding of serum SARS-green to linear peptides of protein N of SARS-CoV Urbani [1]: 0.4; Binding of serum SARS-yellow to linear peptides of protein N of SARS-CoV Urbani [1]: 0.5; Binding of Control Serum Blood-Bank to Looped peptides [2]: 0.8; Binding of Control serum Blood-bank to linear peptides [2]: 0.7; Binding of Control serum LUMC to linear peptides [2]: 0.8; Binding of Control serum LUMC to looped peptides [2]: 0.7 |
| VSGKGQQQQGQTVTK |  | 0.9 |  | 0.3 |  | 0.5 |  | 0.3 |  | 0.5 |  | 0.5 |  | 0.5 | 0.5 | 0.6 | 0.1 | 0.3 | 0.2 | 0.4 | Binding of serum 1a to linear peptide (PEPSCAN-ELISA) [1]: 1.2; Binding of serum 1b to linear peptide (PEPSCAN-ELISA) [1]: 0.6; Binding of serum 2 to linear peptide (PEPSCAN-ELISA) [1]: 0.6; Binding of serum 6 to linear peptide (PEPSCAN-ELISA) [1]: 0.4; Binding of serum 37 to linear peptide (PEPSCAN-ELISA) [1]: 0.9; Binding of serum 62 to linear peptide (PEPSCAN-ELISA) [1]: 1.2; Binding of serum London to linear peptide (PEPSCAN-ELISA) [1]: 0.6; Binding of serum SARS-green to linear peptide (PEPSCAN-ELISA) [1]: 0.5; Binding of serum SARS-yellow to linear peptide (PEPSCAN-ELISA) [1]: 1.0; Binding of Control Serum Blood-Bank to Looped peptides [2]: 0.7; Binding of Control serum Blood-bank to linear peptides [2]: 1.0; Binding of Control serum LUMC to linear peptides [2]: 1.4; Binding of Control serum LUMC to looped peptides [2]: 0.9 |
| VTLLPAADMDDFSRQ | 0.3 | 0.3 | 0.1 | 0.1 | 0.2 | 0.2 | 0.1 | 0.0 | 0.6 | 0.1 | 0.6 | 0.4 | 0.6 | 0.1 | 0.2 | 0.2 | 0.1 | 0.2 | 0.0 | 0.0 | Binding of serum SARS-green to linear peptides of protein N of SARS-CoV Urbani [1]: 0.3; Binding of serum SARS-yellow to linear peptides of protein N of SARS-CoV Urbani [1]: 0.6; Control Serum Blood-Bank Looped peptides [2]: 0.1; Control serum Blood-bank linear peptides [2]: 0.5; Control serum LUMC linear peptides [2]: 0.5; Control serum LUMC looped peptides [2]: 0.4 |
